The series is described as follows: gradient 5% acetonitrile 3 min, to 50% in 2 min, to 85% in 15 min, held 3 min, 100 µL/min. To be noted: column: Zorbax Extend-C18 2.1 x 50 mm; eluents: water / acetonitrile, 0.1% formic acid. Summed up: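 The system's dead and dwell volumes were 40 μL and 900 μL, with a Zorbax Extend-C18 column (2.1 × 50 mm, 1.8 μm) run at 100 μL/min in water and acetonitrile containing 0.1% formic acid each. Pure standards were analyzed in mixtures of ~100 molecules by HPLC–quadrupole time-of-flight mass spectrometry in positive and negative ionization mode. Retention time was assigned from computationally picked, manually inspected adduct peaks.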
Regarding `O=C(Cc1cccs1)NC1CCCN(c2cc(-c3ccccc3)[nH]n2)C1` (stereo not given), the RP-LC retention time was 758 s.

For the compound `CC(C)c1noc(COC2CCN(C(=O)NCc3ccco3)CC2)n1`, the RP-LC retention time was determined as 739 s.

As for `Cc1ccc(S(=O)(=O)N2CCC(C(=O)NCCc3csc(-c4cccs4)n3)CC2)cc1`, the RP-LC retention time was found to be 913 s.

Compound `Cc1sc(-n2cccc2)nc1C(=O)N1CCN(c2ccccn2)CC1` displayed an RP-LC retention time of 623 s.

Consider `O=C(c1noc2c1CCc1sccc1-2)N1CCN(c2ccccn2)CC1`, for which the RP-LC retention time is 673 s.

Turning to `CCOc1ccc(-c2cc3c(=O)n(Cc4nc(-c5cccc(OCC)c5)no4)ncn3n2)cc1`, the RP-LC retention time was 1220 s.

`Cc1ccc(NC(=O)N2CCc3nc(-c4ccc(F)cc4)ncc3C2)c(Cl)c1`: the RP-LC retention time is 1080 s.

The compound `Cc1csc2nc(CNS(=O)(=O)c3cccnc3)cn12` showed an RP-LC retention time of 544 s.

Take `CCn1c(=O)c(C(=O)NCCN(C)C2CCCCC2)nc2cccnc21`: the RP-LC retention time amounted to 722 s.

Regarding `Cc1noc(-c2nn(C)c3c2CN(C(=O)Nc2ccccc2Cl)CC3)n1`, the RP-LC retention time was 725 s.

Regarding `O=C(Cn1c(=O)cc(C(=O)N2CCCC2)c2ccccc21)Nc1cc(F)ccc1F`, the RP-LC retention time was found to be 737 s.

Consider `Cc1ccccc1Nc1c(-c2ccccc2)nc2ncccn12`, for which the RP-LC retention time turned out to be 759 s.

Compound `COc1ccc(-c2cc(N3CCN(C(=O)NCCC(C)C)CC3)ncn2)cc1` returned an RP-LC retention time of 670 s.

As to `Cc1nc(-c2ccncc2)cc2nn(CC(=O)NCc3ccccc3)c(=O)n12`, the RP-LC retention time was found to be 697 s.

Turning to `Cc1noc(-c2nn(C)c3c2CN(C(=O)c2cc4c(s2)CCCC4)CC3)n1`, the RP-LC retention time is 882 s.

Consider `COc1ccc(Cl)cc1NC(=O)C(=O)c1cccn1C`, for which the RP-LC retention time turned out to be 1140 s.

`CC(C(=O)NCCc1ccccc1)n1cnc2nc(N3CCCCC3)ncc2c1=O` (stereo not given) registered an RP-LC retention time of 810 s.

Compound `CCN(Cc1cn(C)nc1C)C(=O)c1cc2c(=O)n(CC(C)C)c3ccccc3n2n1` registered an RP-LC retention time of 864 s.

`CCOc1ccc(-n2nnnc2CN2CCN(S(=O)(=O)c3cccs3)CC2)cc1`: the RP-LC retention time was determined as 874 s.

In the case of `COc1cccc(S(=O)(=O)N2C[C@@H]3C[C@H]2C[C@@H]3NC(=O)c2cccnc2)c1`, the RP-LC retention time is 676 s.

Regarding `O=C(NCc1ccccc1Cl)c1nc(Cn2c(=O)oc3ccccc32)no1`, the RP-LC retention time was 946 s.

As to `O=C(Nc1cnc(N2CCCCCC2)nc1)c1cnccn1`, the RP-LC retention time is 771 s.

For the compound `Cc1cnc(C2CN(Cc3cccc(F)c3)C2)n1Cc1ccccc1`, the RP-LC retention time was found to be 595 s.

On to `CC(C)CCNC(=O)c1cn2cc(Cl)ccc2n1`, for which the RP-LC retention time came out at 825 s.

Turning to `Cc1ccc(CS(=O)(=O)N2CCC(C3CCNC3)CC2)cc1C` (stereo not given), the RP-LC retention time turned out to be 666 s.

Compound `Cc1cc(Nc2ncccc2S(N)(=O)=O)ccc1F` yielded an RP-LC retention time of 820 s.

Take `COC(=O)c1cc(C)nc2c1c(=O)n(Cc1nc(-c3ccc(OC)c(OC)c3)oc1C)c(=O)n2C`: the RP-LC retention time worked out at 964 s.

The compound `Cc1ccc(N2CCC(NC(=O)Nc3ccccc3)C2=O)cc1` (stereo not given) returned an RP-LC retention time of 811 s.

Turning to `CCN1CCN(C(=O)C2CCN(S(=O)(=O)c3ccc4c(c3)sc(=O)n4C(C)C)CC2)CC1`, the RP-LC retention time was found to be 650 s.

Compound `CCCn1nc(C)cc1CN(C)c1ccc(NC(=O)CC)cc1C(=O)O` gave an RP-LC retention time of 618 s.

Regarding `O=C(COc1ccc(-c2cnc3ccccc3n2)cc1)NCCN1CCCC1`, the RP-LC retention time was determined as 623 s.

Compound `O=c1n(Cc2ccccc2F)nc2c(S(=O)(=O)N3CCOCC3)cccn12` came in with an RP-LC retention time of 745 s.

`Cc1ccc(NC(=O)N2CCC(CCN)CC2)cc1F` had an RP-LC retention time of 612 s.

In the case of `Cc1ccc(/C=C/c2onc(C)c2S(=O)(=O)N2CCC(C(=O)NCC3CCCO3)CC2)cc1` (stereo not given), the RP-LC retention time amounted to 828 s.

As for `Cc1ccc(C)c(CS(=O)(=O)N2CCc3nc(-c4ccc(Cl)cc4)ncc3C2)c1`, the RP-LC retention time came out at 1290 s.

`O=C(CCC(=O)c1ccc(F)cc1)Nc1cnn(-c2ncc(N3CCCC3)cn2)c1` registered an RP-LC retention time of 799 s.

Turning to `O=C(Cn1nc(N2CCOCC2)c2ccccc2c1=O)Nc1ccc2c(c1)OCCO2`, the RP-LC retention time came to 737 s.

With `COc1ccc(NC(=O)N2CCC3(C2)C(=O)Nc2ccc(OC)cc23)c(OC)c1` (stereo not given), the RP-LC retention time was determined as 715 s.

In turn, `O=C(COc1ccccc1Cl)N1CCN(c2cc(-c3ccccc3)ncn2)CC1` displayed an RP-LC retention time of 628 s.

The compound `Cc1ccccc1CNC(=O)c1cn(-c2cc(-c3nc(C4CC4)no3)ccn2)cn1` registered an RP-LC retention time of 982 s.

Compound `CN(C)c1ccc(C(=O)NC2CCN(c3ccccc3)C2=O)cc1` (stereo not given) yielded an RP-LC retention time of 713 s.

As for `CCc1ccc(NC(=O)Cn2c(N)nc(C)cc2=O)cc1`, the RP-LC retention time is 639 s.

As to `CCOC(=O)c1ccccc1NC(=O)Cn1c(=O)n(-c2ccc(C)cc2)c(=O)c2c1cc(C)n2C`, the RP-LC retention time is 1060 s.

In turn, `O=C(Cn1cc(-c2ccccc2)c2ncn(C3CC3)c(=O)c21)NCc1ccc2c(c1)OCO2` gave an RP-LC retention time of 852 s.

Turning to `Cc1nn2c(S(=O)(=O)N3CCC(C)CC3)c(C)nc2s1`, the RP-LC retention time came out at 838 s.

Consider `Cc1ccc(Cl)cc1N1CCN(C(=O)c2cc3sccc3n2C)CC1`, for which the RP-LC retention time is 984 s.

`Cc1ccc(Cl)cc1NC(=O)CN(C)S(=O)(=O)c1c[nH]c(C(=O)N2CCCC2)c1` displayed an RP-LC retention time of 818 s.

Regarding `O=C1CC(c2nc(-c3ccccc3F)no2)CN1c1cccc(Cl)c1` (stereo not given), the RP-LC retention time was determined as 977 s.

`COc1cccc2cc(C(=O)Nc3nc4c(s3)CN(S(=O)(=O)C3CC3)CC4)oc12`: the RP-LC retention time is 811 s.

Take `Cc1nc(-c2csc(S(=O)(=O)N3CCC(C(=O)Nc4ccc(Cl)cc4)CC3)c2)no1`: the RP-LC retention time was found to be 986 s.

The compound `CCCC(=O)Nc1ccc2c(c1)CN(C(=O)c1ccccc1)C(C(=O)N(C)C)C2` (stereo not given) returned an RP-LC retention time of 671 s.

On to `CCC(C)NC(=O)c1nnc(-c2ccc(S(=O)(=O)N3CCCCC3)cc2)o1` (stereo not given), for which the RP-LC retention time is 961 s.

For `Cc1cc(C)cc(-n2ccc(=O)c(-c3nc(-c4ccc5c(c4)OCO5)no3)n2)c1`, the RP-LC retention time was 996 s.

The compound `Cc1nc(C2CCCCN2C(=O)c2ccco2)n[nH]1` (stereo not given) came in with an RP-LC retention time of 593 s.

Consider `CN(C)[C@@H]1CN(C(=O)CC2CCCCC2)CC[C@@H]1CO`, for which the RP-LC retention time amounted to 615 s.

In the case of `CCc1nnc2c(=O)n(CC(=O)N3CCN(c4ccccn4)CC3)c3cccnc3n12`, the RP-LC retention time was determined as 560 s.

`COCCNS(=O)(=O)c1cccc(-c2nnc(-c3ccc(C)cc3)o2)c1` displayed an RP-LC retention time of 880 s.

In turn, `O=C([C@H]1C[C@@H](F)CN1S(=O)(=O)Cc1ccc(Cl)cc1)N1CCOCC1` registered an RP-LC retention time of 747 s.

As to `COc1ccc(NC(=O)Cn2nc3cc(-c4ccccc4)nc(C)n3c2=O)c(OC)c1`, the RP-LC retention time worked out at 918 s.

In the case of `CCOc1ccc(NC(=O)CCC2CCN(c3cc(NC4CC4)ncn3)CC2)cc1`, the RP-LC retention time came to 710 s.

For `Cc1ccn(-c2ccc(Nc3ccc(NC(=O)c4ccc(Br)o4)cc3)nn2)n1`, the RP-LC retention time worked out at 776 s.

Take `CCOc1cccc(CNc2ncc(C(=O)O)c(C)n2)c1`: the RP-LC retention time is 758 s.

`CS(=O)(=O)N1CCN(CCNC(=O)NC(c2ccccc2)c2ccccc2)CC1` gave an RP-LC retention time of 580 s.

In turn, `CCCCC(=O)Nc1nc(-c2ccc3c(c2)N(CC)C(=O)CO3)cs1` returned an RP-LC retention time of 932 s.

Compound `Cc1ccc(Cl)cc1NC(=O)Cc1c(C)nn(-c2nc(-c3ccc(F)cc3)cs2)c1C` registered an RP-LC retention time of 1250 s.

Turning to `CCCN(CC1CCOC1)C(=O)Nc1ccc(C)c(C)c1` (stereo not given), the RP-LC retention time was 869 s.

For `CC1(O)CCOC2(CCN(Cc3ccccc3OC(F)(F)F)CC2)C1` (stereo not given), the RP-LC retention time worked out at 632 s.

Compound `COc1cc2c(cc1OC)CC(=O)N(CCCN(C)C[C@H]1Cc3cc(OC)c(OC)cc31)CC2` yielded an RP-LC retention time of 677 s.

The compound `Cc1oc(CNC(=O)Nc2ccccc2Cl)nc1C(=O)N1CCCC1` registered an RP-LC retention time of 680 s.

As to `Cc1ccc(S(=O)(=O)CCC(=O)N2CCCC2c2nc(-c3ccc(Cl)cc3)no2)cc1` (stereo not given), the RP-LC retention time was 1060 s.

The compound `Cc1ccc(NC(=O)C2CCN(S(=O)(=O)c3ccc4c(c3)CCCC(=O)N4)CC2)cc1` showed an RP-LC retention time of 948 s.

Turning to `O=c1n(CC2CC2)nc2n1CCC(NS(=O)(=O)c1cccc(F)c1)CC2` (stereo not given), the RP-LC retention time is 717 s.

`Cc1ccc(NC(=O)c2cn(-c3cc(N(C)C)ncn3)cn2)cc1`: the RP-LC retention time worked out at 832 s.

`COc1ccc(OC)c(C(C)NC(=O)CCc2ccc3nc[nH]c3c2)c1` (stereo not given) registered an RP-LC retention time of 613 s.

Regarding `O=C(NC1CC1)C1CCCN(C(=O)c2ccccc2F)C1` (stereo not given), the RP-LC retention time turned out to be 634 s.

`Cc1ccc([N+](=O)[O-])cc1S(=O)(=O)Nc1ccc(-c2cn3ccccc3n2)cc1`: the RP-LC retention time amounted to 664 s.

In turn, `Cc1cccc(NC(=O)c2ccc(=O)n(C)n2)n1` yielded an RP-LC retention time of 595 s.

In turn, `COc1ncc(C(=O)NCc2ccc(N(C)C)cc2)cn1` showed an RP-LC retention time of 564 s.

`CCOC(=O)C1=C(CN2CC(C)CC(C)C2)NC(=O)NC1c1ccc(OC)cc1` (stereo not given) registered an RP-LC retention time of 653 s.

Compound `NC(=O)C1CCN(C(=O)CCCc2nc3cccnc3n2Cc2ccc(F)cc2)CC1` came in with an RP-LC retention time of 602 s.
